Here are results for nine compounds from patent US9624195B2, “Isoquinoline compounds” (Gilead Sciences, Inc., priority 2014, dated 2017).

Read-outs that look alike come from different tables or passages of the source.

Common to all, as to assay type: cell-based
One data set relates to HIV-1 HBX2 (wild type). The experiment in a line: High throughput cytopathic effect assay in MT-4 cells, HIV-1 wild type. From the text:
(§1) Compounds were screened in a miniaturized, high throughput cytopathic effect assay for activity against HIV-1 HBX2 (wild type) and HIV-1 reverse transcriptase mutants K103N and Y181C. In Tables 1 and 2 below, “w.t.” refers to results of the tested compounds run with the wildtype 1 and “w.t. assay 2” refers results of the tested compounds run with the wildtype on the same day as the testing of the compounds with the mutants. Thus, “w.t. assay 2” was run under the same conditions as the testing of the compounds with the mutants and provides a direct comparison with the results from the testing with the mutants.
(§2) Ten-point serial dilutions of compounds with half-log step size were generated in DMSO. AZT (5 μM) was used as the positive control and DMSO as the negative control. The Echo acoustic dispenser was used to deliver 200 nL of serially diluted compound into sterile 384 well tissue culture assay plates. Two million MT-4 cells were incubated with each of the 3 viruses at MOI of 0.0005 in separate 1 mL infection tubes for 1 hour at 37° C. The cells were diluted in cell culture medium (RPMI+10% FBS) to 50,000 cells/mL. The infected cells were added to 384 well assay plates containing serially dilute compounds. Assay plates were incubated for 5 days in a humidified incubator set at 37° C. and 5% CO2. To measure the cytopathic effect of HIV, 40 μL Cell TiterGlo was added to each well and the resulting luminescence signal is read with the Envision plate reader (Perkin Elmer). Data were normalized to positive and negative controls in each plate and expressed as % CPE Protection. EC50 values were defined as the compound concentration that caused a 50% […] in luminescence signal, and were calculated by non-linear regression using Pipeline Pilot software by applying a four parameter fit equation (Accelrys, San Diego, Calif.).
(§3) The high-throughput screening was also run for nevirapine (“NPV”), rilpivirine (“RPV”), and efavirenz (“EFV”). Nevirapine was obtained from Toronto Research Chemicals, Inc. (Toronto, Canada; Catalogue #N391275). Rilpivirine was obtained from Key Organics Ltd. (Camelford, Cornwall, United Kingdom; Catalogue #KE-0036). Efavirenz was obtained from Toronto Research Chemicals, Inc. (Toronto, Canada; Catalogue #E425000). Further details and background can be found in Janssen et al, J. Med. Chem, 2005, 48, 1901-1909; Das et al., Proc. Nat. Acad. Sci., 2008, vol., 105, no. 5, 1466-1471; and Kuroda et al., Nature Chemistry, 2013, DOI: 10.1038/NCHEM.1559.

Data set [1] concerns HIV-1 reverse transcriptase mutant K103N. Put plainly: High throughput cytopathic effect assay in MT-4 cells, HIV-1 RT mutant K103N. Particulars: for EC50: Human immunodeficiency virus 1, MT4, read-out: MT4 EC50 (nM) against K103N; for FC against mutant K103N: fold change of EC50, K103N versus w.t. assay 2.
Description: as §1, §2, §3

Data set [2] deals with HIV-1 reverse transcriptase mutant Y181C. Put plainly: High throughput cytopathic effect assay in MT-4 cells, HIV-1 RT mutant Y181C. As to conditions: for EC50: Human immunodeficiency virus 1, MT4, read-out: MT4 EC50 (nM) against Y181C; for FC against mutant Y181C: fold change of EC50, Y181C versus w.t. assay 2.
Description: as §1, §2, §3

Another data set deals with T1, hERG channels (Homo sapiens, UniProt Q12809).
T1 construct: host or cells: CHO cells stably expressing hERG
The experiment in a line: hERG assay, whole cell recordings in CHO cells stably expressing hERG channels. As to conditions: tail current, whole cell patch clamp. Here is the method:
AVIVA's CHO cell line, which stably expresses hERG channels, was used for the study. Cells were cultured in DMEM/F12 containing 10% FBS, 1% penicillin/streptomycin and 500 μg/ml G418. Before testing, cells were harvested using Accumax (Innovative Cell Technologies).
For electrophysiological recordings, the following solutions were used:
External Solution: 2 mM CaCl2; 2 mM MgCl2; 4 mM KCl; 150 mM NaCl; 10 mM Glucose; 10 mM HEPES; 305-315 mOsm; pH 7.4 (adjusted with 5M NaOH.)
Internal Solution: 140 mM KCl; 10 mM MgCl2; 6 mM EGTA; 5 mM HEPES-Na; 5 mM ATP-Mg; 295-305 mOsm; pH 7.25 (adjusted with 1M KOH).
Whole cell recordings were performed using PX 7000A (Axon Instruments) with AVIVA's SealChip™ technology. Cells were voltage clamped at a holding potential of −80 mV. The hERG current was then activated by a depolarizing step to −50 mV for 300 ms. This first step at −50 mV was used as a baseline for measuring peak amplitude of the tail current. Next, a voltage step to +20 mV was applied for 5 s to activate the channels. Finally, a step back to −50 mV for 5 s removed activation and the deactivating tail current was recorded.
All test articles were prepared from 10 mM DMSO stock solutions. […]
After achieving whole cell configuration, cells were monitored for 90 s to assess stability and then washed with External Solution for 66 s. […]

The mark [3] stands for this setting: Human immunodeficiency virus 1, MT4, 120 h, MT-4 cells, HIV-1 wild type, 5 days, CPE protection (Cell TiterGlo), read-out: MT4 EC50 (nM) against w.t.
The mark [4] stands for this setting: Human immunodeficiency virus 1, MT4, read-out: MT4 EC50 (nM) against w.t. assay 2.

T1 sequence (Q12809 whole entry): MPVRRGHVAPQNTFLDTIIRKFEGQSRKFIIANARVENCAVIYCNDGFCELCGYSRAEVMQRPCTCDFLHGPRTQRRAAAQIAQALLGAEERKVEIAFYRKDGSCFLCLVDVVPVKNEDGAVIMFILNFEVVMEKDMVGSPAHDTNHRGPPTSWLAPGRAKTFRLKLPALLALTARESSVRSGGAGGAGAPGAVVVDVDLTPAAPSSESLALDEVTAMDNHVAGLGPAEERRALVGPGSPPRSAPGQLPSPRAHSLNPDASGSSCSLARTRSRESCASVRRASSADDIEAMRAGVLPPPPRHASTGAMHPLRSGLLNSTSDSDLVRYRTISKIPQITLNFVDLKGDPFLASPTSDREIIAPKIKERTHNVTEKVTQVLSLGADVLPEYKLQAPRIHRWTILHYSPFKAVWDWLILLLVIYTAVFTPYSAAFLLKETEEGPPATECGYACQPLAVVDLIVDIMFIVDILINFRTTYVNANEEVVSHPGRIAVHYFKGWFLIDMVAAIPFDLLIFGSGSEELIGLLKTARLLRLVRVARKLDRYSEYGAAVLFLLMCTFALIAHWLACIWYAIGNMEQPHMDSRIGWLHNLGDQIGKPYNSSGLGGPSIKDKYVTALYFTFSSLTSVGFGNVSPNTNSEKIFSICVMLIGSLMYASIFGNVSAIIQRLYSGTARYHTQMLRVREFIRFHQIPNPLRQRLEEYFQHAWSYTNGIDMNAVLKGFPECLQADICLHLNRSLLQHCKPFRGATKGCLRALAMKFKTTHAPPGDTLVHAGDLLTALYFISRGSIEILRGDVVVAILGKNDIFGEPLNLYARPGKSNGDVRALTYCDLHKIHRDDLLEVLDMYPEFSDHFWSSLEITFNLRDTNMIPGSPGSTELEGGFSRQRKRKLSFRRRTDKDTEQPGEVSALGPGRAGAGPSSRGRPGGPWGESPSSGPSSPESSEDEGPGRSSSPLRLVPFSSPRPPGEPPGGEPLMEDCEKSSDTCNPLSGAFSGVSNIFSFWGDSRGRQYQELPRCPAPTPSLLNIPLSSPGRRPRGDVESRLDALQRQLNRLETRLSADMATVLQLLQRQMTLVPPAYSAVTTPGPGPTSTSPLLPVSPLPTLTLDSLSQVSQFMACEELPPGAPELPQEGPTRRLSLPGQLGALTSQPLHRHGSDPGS

With `Cc1cc(/C=C/C#N)cc(C)c1-c1cccc2c(N)nc(Nc3ncc(C#N)cn3)cc12` [Compound 1, (E)-2-((1-Amino-5-(4-(2-cyanovinyl)-2,6-dimethylphenyl)isoquinolin-3-yl)amino)pyrimidine-5-carbonitrile], the EC50 in the data set with HIV-1 HBX2 (wild type) (setting [3]) worked out at 6.4 nM; with HIV-1 HBX2 (wild type) (setting [4]) it was 4.5 nM; in data set [1], 6.4 nM; in data set [2] it was 51.6 nM. Also, the “FC against mutant K103N” value in data set [1] came to 1.4. Besides, in data set [2], the “FC against mutant Y181C” value is given as 11.5.

Turning to `Cc1cc(/C=C/C#N)cc(C)c1-c1cccc2cnc(Nc3ccc(C#N)cn3)cc12` [Compound 5, (E)-6-((5-(4-(2-Cyanovinyl)-2,6-dimethylphenyl)isoquinolin-3-yl)amino)nicotinonitrile], the EC50 in the data set with HIV-1 HBX2 (wild type) (setting [3]) turned out to be 4.2 nM; in the data set on HIV-1 HBX2 (wild type) (setting [4]), 4.7 nM; in data set [1] it was 4.7 nM; in data set [2], 12 nM. In addition, the “FC against mutant K103N” value in data set [1] is reported as 1.0. For the same compound, the “FC against mutant Y181C” value in data set [2] is 2.5.

For the compound `Cc1cc(/C=C/C#N)cc(C)c1-c1cccc2c(N)nc(Nc3ccc(C#N)nn3)cc12` [Compound 3, (E)-6-((1-Amino-5-(4-(2-cyanovinyl)-2,6-dimethylphenyl)isoquinolin-3-yl)amino)pyridazine-3-carbonitrile], the concentration for a half-maximal effect (EC50) in the data set with HIV-1 HBX2 (wild type) (setting [3]) turned out to be 17 nM; in the data set with HIV-1 HBX2 (wild type) (setting [4]) it was 22.7 nM; in data set [1], 36.4 nM; in data set [2], 174 nM. In addition, the “FC against mutant K103N” value in data set [1] is reported as 1.6. Besides, the “FC against mutant Y181C” value in data set [2] was determined as 7.7.

For the compound `Cc1cc(/C=C/C#N)cc(C)c1Nc1ccnc(Nc2ccc(C#N)cc2)n1` [Rilpivirine, rilpivirine, reference compound], the EC50 in the data set on HIV-1 HBX2 (wild type) (setting [3]) was found to be 0.9 nM; with HIV-1 HBX2 (wild type) (setting [4]), 1.3 nM; in data set [1], 1.5 nM; in data set [2], 3.8 nM. Further, the “FC against mutant K103N” value in data set [1] is 1.2. Also, the “FC against mutant Y181C” value in data set [2] came out at 3.1. On hERG channels, the hERG is 0.5 µM.

Consider `O=C1Nc2ccc(Cl)cc2[C@@](C#CC2CC2)(C(F)(F)F)O1` [Efavirenz, efavirenz, reference compound], for which the EC50 turned out to be 1.3 nM in the data set on HIV-1 HBX2 (wild type) (setting [3]), 1.6 nM with HIV-1 HBX2 (wild type) (setting [4]), 46.4 nM in data set [1] and 3.8 nM in data set [2]. Moreover, the “FC against mutant K103N” value in data set [1] was 28.9. The “FC against mutant Y181C” value in data set [2] is recorded as 2.3.

Consider `Cc1cc(/C=C/C#N)cc(C)c1-c1cccc2cnc(Nc3ccc(C#N)cc3)cc12` [Compound 6, (E)-4-((5-(4-(2-Cyanovinyl)-2,6-dimethylphenyl)isoquinolin-3-yl)amino)benzonitrile], for which the EC50 in the data set on HIV-1 HBX2 (wild type) (setting [3]) was determined as 12.9 nM.

For `Cc1cc(/C=C/C#N)cc(C)c1-c1cccc2c(N)nc(Nc3ccc(C#N)cn3)cc12` [Compound 4, (E)-6-((1-Amino-5-(4-(2-cyanovinyl)-2,6-dimethylphenyl)isoquinolin-3-yl)amino)nicotinonitrile], the EC50 was found to be 2.8 nM with HIV-1 HBX2 (wild type) (setting [3]), 3.6 nM in the data set on HIV-1 HBX2 (wild type) (setting [4]), 3.7 nM in data set [1] and 12 nM in data set [2]. Besides, in data set [1], the “FC against mutant K103N” value was 1.0. The “FC against mutant Y181C” value in data set [2] is 3.4. For the same compound, the hERG at hERG channels was 3 µM.

Regarding `Cc1ccnc2c1NC(=O)c1cccnc1N2C1CC1` [Nevirapine, nevirapine, reference compound], the EC50 in the data set with HIV-1 HBX2 (wild type) (setting [3]) came to 65 nM.

Take `Cc1cc(/C=C/C#N)cc(C)c1-c1cccc2c(N)nc(Nc3cnc(C#N)cn3)cc12` [Compound 2, (E)-5-((1-Amino-5-(4-(2-cyanovinyl)-2,6-dimethylphenyl)isoquinolin-3-yl)amino)pyrazine-2-carbonitrile]: the EC50 with HIV-1 HBX2 (wild type) (setting [3]) is 14.4 nM; with HIV-1 HBX2 (wild type) (setting [4]) it was 20.2 nM; in data set [1] it was 29.7 nM; in data set [2], 109 nM. In addition, the “FC against mutant K103N” value in data set [1] is listed as 1.5. The “FC against mutant Y181C” value in data set [2] is 5.4.
